According to the NIST ThermoML archive (doi:10.1016/j.jct.2016.10.023):
± gives the expanded uncertainty stated by the source.

Experiment: xn = mol fraction of the nth substance listed
Conditions: Constant-volume piezometry

CCCCC [pentane] + CCCO
mass density [kg/m3]
Conditions | Fluid (supercritical or subcritical phases) | Gas
518.15 K, 4877 kPa, x1 = 0.2 | 220.15 ± 1.8 | –
518.15 K, 4965 kPa, x1 = 0.2 | 259.26 ± 1.9 | –
518.15 K, 4994 kPa, x1 = 0.2 | 272.43 ± 1.9 | –
518.15 K, 5010 kPa, x1 = 0.2 | 290.61 ± 2.1 | –
523.15 K, 954 kPa, x1 = 0.5 | – | 15.52 ± 0.05
523.15 K, 1314 kPa, x1 = 0.8 | – | 22.52 ± 0.07
523.15 K, 1549 kPa, x1 = 0.2 | – | 24.93 ± 0.08
523.15 K, 1732 kPa, x1 = 0.5 | – | 29.98 ± 0.09
523.15 K, 1978 kPa, x1 = 0.8 | – | 36.69 ± 0.11
523.15 K, 2284 kPa, x1 = 0.5 | – | 40.49 ± 0.12
523.15 K, 2704 kPa, x1 = 0.5 | – | 51.09 ± 0.16
523.15 K, 2890 kPa, x1 = 0.8 | – | 58.41 ± 0.18
523.15 K, 3111 kPa, x1 = 0.2 | – | 53.01 ± 0.17
523.15 K, 3416 kPa, x1 = 0.5 | – | 67.52 ± 0.21
523.15 K, 3421 kPa, x1 = 0.8 | – | 73.79 ± 0.23
523.15 K, 3614 kPa, x1 = 0.5 | – | 72.6 ± 0.23
523.15 K, 3631 kPa, x1 = 0.9 | 83.38 ± 0.42 | –
523.15 K, 4037 kPa, x1 = 0.2 | – | 91.41 ± 0.29
523.15 K, 4041 kPa, x1 = 0.5 | – | 88.91 ± 0.28
523.15 K, 4261 kPa, x1 = 0.5 | – | 95.85 ± 0.3
523.15 K, 4356 kPa, x1 = 0.8 | 106.4 ± 0.54 | –
523.15 K, 4459 kPa, x1 = 0.2 | 114.35 ± 0.68 | 114.35 ± 0.39
523.15 K, 4600 kPa, x1 = 0.9 | 123.35 ± 0.63 | –
523.15 K, 4817 kPa, x1 = 0.9 | 134.12 ± 0.69 | –
523.15 K, 4864 kPa, x1 = 0.2 | 150.34 ± 0.83 | –
523.15 K, 4871 kPa, x1 = 0.5 | 121.89 ± 0.63 | –
523.15 K, 5043 kPa, x1 = 0.2 | 175.61 ± 1.1 | –
523.15 K, 5108 kPa, x1 = 0.2 | 189.64 ± 1.1 | –
523.15 K, 5158 kPa, x1 = 0.8 | 140.3 ± 0.72 | –
523.15 K, 5206 kPa, x1 = 0.5 | 144.11 ± 0.75 | –
523.15 K, 5208 kPa, x1 = 0.2 | 220.1 ± 1.2 | –
523.15 K, 5292 kPa, x1 = 0.2 | 245.47 ± 1.3 | –
523.15 K, 5316 kPa, x1 = 0.9 | 163.95 ± 0.84 | –
523.15 K, 5328 kPa, x1 = 0.2 | 259.2 ± 1.4 | –
523.15 K, 5343 kPa, x1 = 0.2 | 262.9 ± 1.4 | –
523.15 K, 5359 kPa, x1 = 0.5 | 154.49 ± 0.8 | –
523.15 K, 5364 kPa, x1 = 0.2 | 272.36 ± 1.4 | –
523.15 K, 5370 kPa, x1 = 0.8 | 156.04 ± 0.8 | –
523.15 K, 5423 kPa, x1 = 0.2 | 290.54 ± 1.6 | –
523.15 K, 5483 kPa, x1 = 0.2 | 306.83 ± 1.6 | –
523.15 K, 5508 kPa, x1 = 0.2 | 311.06 ± 1.6 | –
523.15 K, 5518 kPa, x1 = 0.5 | 165.14 ± 0.88 | –
523.15 K, 5551 kPa, x1 = 0.2 | 318.77 ± 1.7 | –
523.15 K, 5586 kPa, x1 = 0.8 | 169.78 ± 0.87 | –
523.15 K, 5668 kPa, x1 = 0.8 | 176.03 ± 0.92 | –
523.15 K, 5707 kPa, x1 = 0.2 | 341.26 ± 1.8 | –
523.15 K, 5707 kPa, x1 = 0.5 | 182.85 ± 0.94 | –
523.15 K, 5717 kPa, x1 = 0.9 | 189.45 ± 0.97 | –
523.15 K, 5731 kPa, x1 = 0.2 | 344.05 ± 1.8 | –
523.15 K, 5763 kPa, x1 = 0.8 | 180.83 ± 0.92 | –
523.15 K, 5911 kPa, x1 = 0.9 | 202.38 ± 1 | –
523.15 K, 5913 kPa, x1 = 0.5 | 200.39 ± 1 | –
523.15 K, 5925 kPa, x1 = 0.8 | 193.16 ± 0.99 | –
523.15 K, 6011 kPa, x1 = 0.5 | 210.22 ± 1.4 | –
523.15 K, 6117 kPa, x1 = 0.5 | 224.05 ± 1.5 | –
523.15 K, 6195 kPa, x1 = 0.9 | 220.68 ± 1.1 | –
523.15 K, 6235 kPa, x1 = 0.5 | 241.5 ± 1.3 | –
523.15 K, 6236 kPa, x1 = 0.8 | 213.85 ± 1.1 | –
523.15 K, 6242 kPa, x1 = 0.2 | 378.64 ± 1.9 | –
523.15 K, 6294 kPa, x1 = 0.5 | 250.69 ± 1.4 | –
523.15 K, 6320 kPa, x1 = 0.8 | 219.62 ± 1.1 | –
523.15 K, 6339 kPa, x1 = 0.2 | 383.45 ± 1.9 | –
523.15 K, 6353 kPa, x1 = 0.5 | 259.74 ± 1.3 | –
523.15 K, 6399 kPa, x1 = 0.9 | 233.06 ± 1.2 | –
523.15 K, 6454 kPa, x1 = 0.9 | 236.53 ± 1.2 | –
523.15 K, 6480 kPa, x1 = 0.5 | 270.56 ± 1.4 | –
523.15 K, 6513 kPa, x1 = 0.9 | 240.93 ± 1.2 | –
523.15 K, 6560 kPa, x1 = 0.2 | 391.28 ± 2 | –
523.15 K, 6567 kPa, x1 = 0.9 | 244.24 ± 1.2 | –
523.15 K, 6580 kPa, x1 = 0.8 | 234.7 ± 1.2 | –
523.15 K, 6628 kPa, x1 = 0.5 | 282.38 ± 1.4 | –
523.15 K, 6748 kPa, x1 = 0.8 | 245.34 ± 1.2 | –
523.15 K, 6923 kPa, x1 = 0.5 | 298.67 ± 1.5 | –
523.15 K, 6963 kPa, x1 = 0.8 | 258.57 ± 1.3 | –
523.15 K, 7242 kPa, x1 = 0.8 | 272.53 ± 1.4 | –
523.15 K, 7295 kPa, x1 = 0.9 | 282.01 ± 1.4 | –
523.15 K, 7431 kPa, x1 = 0.5 | 320 ± 1.8 | –
523.15 K, 7549 kPa, x1 = 0.5 | 325.27 ± 1.8 | –
523.15 K, 7577 kPa, x1 = 0.2 | 418.71 ± 2.1 | –
523.15 K, 7600 kPa, x1 = 0.8 | 288.38 ± 1.5 | –
523.15 K, 7736 kPa, x1 = 0.9 | 301.69 ± 1.5 | –
523.15 K, 7896 kPa, x1 = 0.8 | 299.2 ± 1.5 | –
523.15 K, 8097 kPa, x1 = 0.5 | 344.56 ± 1.7 | –
523.15 K, 8118 kPa, x1 = 0.9 | 312.33 ± 1.6 | –
523.15 K, 8453 kPa, x1 = 0.8 | 315.37 ± 1.6 | –
523.15 K, 8992 kPa, x1 = 0.9 | 334.04 ± 1.7 | –
523.15 K, 9070 kPa, x1 = 0.5 | 372.89 ± 1.9 | –
523.15 K, 9148 kPa, x1 = 0.8 | 333.86 ± 1.7 | –
523.15 K, 9669 kPa, x1 = 0.8 | 345.38 ± 1.7 | –
523.15 K, 10260 kPa, x1 = 0.9 | 354.13 ± 1.8 | –
523.15 K, 10494 kPa, x1 = 0.5 | 398.14 ± 2 | –
523.15 K, 10826 kPa, x1 = 0.8 | 361.95 ± 1.8 | –
523.15 K, 11137 kPa, x1 = 0.2 | 470.39 ± 2.4 | –
523.15 K, 12130 kPa, x1 = 0.5 | 417.24 ± 2.1 | –
523.15 K, 14557 kPa, x1 = 0.5 | 440.97 ± 2.2 | –
523.15 K, 15550 kPa, x1 = 0.9 | 407.31 ± 2 | –
523.15 K, 15764 kPa, x1 = 0.5 | 451.29 ± 2.3 | –
523.15 K, 16344 kPa, x1 = 0.8 | 418.23 ± 2.1 | –
523.15 K, 16569 kPa, x1 = 0.2 | 509.61 ± 2.6 | –
523.15 K, 19192 kPa, x1 = 0.5 | 468.18 ± 2.4 | –
523.15 K, 25897 kPa, x1 = 0.2 | 547.05 ± 2.8 | –
523.15 K, 26649 kPa, x1 = 0.8 | 466.73 ± 2.4 | –
523.15 K, 33702 kPa, x1 = 0.5 | 519.37 ± 2.6 | –
523.15 K, 36508 kPa, x1 = 0.8 | 496.15 ± 2.5 | –
523.15 K, 39812 kPa, x1 = 0.2 | 581.35 ± 2.9 | –
533.15 K, 1342 kPa, x1 = 0.8 | – | 22.51 ± 0.07
533.15 K, 1590 kPa, x1 = 0.2 | – | 24.92 ± 0.08
533.15 K, 2034 kPa, x1 = 0.8 | – | 36.67 ± 0.11
533.15 K, 2979 kPa, x1 = 0.8 | – | 58.39 ± 0.18
533.15 K, 3245 kPa, x1 = 0.2 | – | 52.98 ± 0.17
533.15 K, 3545 kPa, x1 = 0.8 | – | 73.76 ± 0.23
533.15 K, 3768 kPa, x1 = 0.9 | 83.34 ± 0.42 | –
533.15 K, 4255 kPa, x1 = 0.2 | – | 91.37 ± 0.29
533.15 K, 4552 kPa, x1 = 0.8 | 106.35 ± 0.54 | –
533.15 K, 4745 kPa, x1 = 0.2 | – | 114.3 ± 0.36
533.15 K, 4839 kPa, x1 = 0.9 | 123.29 ± 0.63 | –
533.15 K, 5078 kPa, x1 = 0.9 | 134.05 ± 0.68 | –
533.15 K, 5281 kPa, x1 = 0.2 | 150.27 ± 0.76 | –
533.15 K, 5454 kPa, x1 = 0.8 | 140.24 ± 0.71 | –
533.15 K, 5541 kPa, x1 = 0.2 | 175.53 ± 1 | –
533.15 K, 5638 kPa, x1 = 0.2 | 189.54 ± 1.1 | –
533.15 K, 5660 kPa, x1 = 0.9 | 163.88 ± 0.83 | –
533.15 K, 5720 kPa, x1 = 0.8 | 155.97 ± 0.8 | –
533.15 K, 5833 kPa, x1 = 0.2 | 219.99 ± 1.1 | –
533.15 K, 5973 kPa, x1 = 0.8 | 169.7 ± 0.87 | –
533.15 K, 5993 kPa, x1 = 0.2 | 245.35 ± 1.4 | –
533.15 K, 6071 kPa, x1 = 0.8 | 175.94 ± 0.89 | –
533.15 K, 6078 kPa, x1 = 0.2 | 259.07 ± 1.4 | –
533.15 K, 6109 kPa, x1 = 0.2 | 262.77 ± 1.4 | –
533.15 K, 6137 kPa, x1 = 0.9 | 189.36 ± 0.96 | –
533.15 K, 6162 kPa, x1 = 0.2 | 272.22 ± 1.5 | –
533.15 K, 6177 kPa, x1 = 0.8 | 180.74 ± 0.92 | –
533.15 K, 6285 kPa, x1 = 0.2 | 290.39 ± 1.5 | –
533.15 K, 6384 kPa, x1 = 0.8 | 193.07 ± 0.98 | –
533.15 K, 6395 kPa, x1 = 0.9 | 202.28 ± 1 | –
533.15 K, 6426 kPa, x1 = 0.2 | 306.67 ± 1.6 | –
533.15 K, 6463 kPa, x1 = 0.2 | 310.9 ± 1.6 | –
533.15 K, 6550 kPa, x1 = 0.2 | 318.61 ± 1.6 | –
533.15 K, 6727 kPa, x1 = 0.9 | 220.58 ± 1.1 | –
533.15 K, 6761 kPa, x1 = 0.8 | 213.75 ± 1.1 | –
533.15 K, 6844 kPa, x1 = 0.2 | 341.09 ± 1.7 | –
533.15 K, 6859 kPa, x1 = 0.8 | 219.51 ± 1.1 | –
533.15 K, 6879 kPa, x1 = 0.2 | 343.88 ± 1.7 | –
533.15 K, 6955 kPa, x1 = 0.9 | 232.95 ± 1.2 | –
533.15 K, 7014 kPa, x1 = 0.9 | 236.41 ± 1.2 | –
533.15 K, 7092 kPa, x1 = 0.9 | 240.81 ± 1.2 | –
533.15 K, 7159 kPa, x1 = 0.9 | 244.12 ± 1.2 | –
